Test results from US12538924B2, “Pesticidally active heterocyclic derivatives with sulfur containing substituents” (SYNGENTA CROP PROTECTION AG, priority 2019, dated 2026).

Key:
Format in all cases: in vivo
[1] = test system: Plutella xylostella (Diamond Back Moth); experiment: Plutella xylostella (Diamond Back Moth), treated artificial diet; settings: 192 h, application rate of 200 ppm, eggs on treated artificial diet, 8 days after infestation, read-out: effect in at least one of the two categories (mortality or growth inhibition)
Procedure: Example B5: Plutella xylostella (Diamond Back Moth)
24-well microtiter plates with artificial diet were treated with aqueous test solutions prepared from 10'000 ppm DMSO stock solutions by pipetting. After drying, Plutella eggs were pipetted through a plastic stencil onto a gel blotting paper and the plate was closed with it. The samples were assessed for mortality and growth inhibition in comparison to untreated samples 8 days after infestation.

[2] = test system: Bemisia tabaci (Cotton White Fly); experiment: Bemisia tabaci (Cotton White Fly): Feeding/Contact Activity; settings: foliar, 144 h, application rate of 200 ppm, adult white flies on sprayed cotton leaf discs, 6 days after incubation
Procedure: Example B1: Bemisia tabaci (Cotton White Fly): Feeding/Contact Activity
Cotton leaf discs were placed on agar in 24-well microtiter plates and sprayed with aqueous test solutions prepared from 10'000 ppm DMSO stock solutions. After drying the leaf discs were infested with adult white flies. The samples were checked for mortality 6 days after incubation.

[3] = test system: Spodoptera littoralis (Egyptian Cotton Leaf Worm); experiment: Spodoptera littoralis (Egyptian Cotton Leaf Worm), sprayed cotton leaf discs; settings: foliar, 72 h, application rate of 200 ppm, L1 larvae on sprayed cotton leaf discs, 3 days after infestation, read-out: control (mortality, anti-feeding effect or growth inhibition)
Procedure: Example B8: Spodoptera littoralis (Egyptian Cotton Leaf Worm)
Cotton leaf discs were placed onto agar in 24-well microtiter plates and sprayed with aqueous test solutions prepared from 10'000 ppm DMSO stock solutions. After drying the leaf discs were infested with five L1 larvae. The samples were assessed for mortality, anti-feeding effect, and growth inhibition in comparison to untreated samples 3 days after infestation. Control of Spodoptera littoralis by a test sample is given when at least one of the categories mortality, anti-feedant effect, and growth inhibition is higher than the untreated sample.

[4] = test system: Myzus persicae (Green Peach Aphid); experiment: Myzus persicae (Green Peach Aphid): Feeding/Contact Activity; settings: foliar, 144 h, application rate of 200 ppm, aphid population of mixed ages on sprayed sunflower leaf discs, 6 days after infestation
Procedure: Example B6: Myzus persicae (Green Peach Aphid): Feeding/Contact Activity
Sunflower leaf discs were placed onto agar in a 24-well microtiter plate and sprayed with aqueous test solutions prepared from 10'000 ppm DMSO stock solutions. After drying, the leaf discs were infested with an aphid population of mixed ages. The samples were assessed for mortality 6 days after infestation.

[5] = test system: Diabrotica Balteata (Corn Root Worm); experiment: Diabrotica balteata (Corn Root Worm), sprayed maize sprouts; settings: 96 h, application rate of 200 ppm, L2 larvae on sprayed maize sprouts, 4 days after infestation, read-out: effect in at least one of the two categories (mortality or growth inhibition)
Procedure: Example B2: Diabrotica Balteata (Corn Root Worm)
Maize sprouts placed onto an agar layer in 24-well microtiter plates were treated with aqueous test solutions prepared from 10'000 ppm DMSO stock solutions by spraying. After drying, the plates were infested with L2 larvae (6 to 10 per well). The samples were assessed for mortality and growth inhibition in comparison to untreated samples 4 days after infestation.

[6] = test system: Euschistus heros (Neotropical Brown Stink Bug); experiment: Euschistus heros (Neotropical Brown Stink Bug), sprayed soybean leaves; settings: 120 h, application rate of 200 ppm, N2 nymphs on sprayed soybean leaves, 5 days after infestation, read-out: effect in at least one of the two categories (mortality or growth inhibition)
Procedure: Example B3: Euschistus heros (Neotropical Brown Stink Bug)
Soybean leaves on agar in 24-well microtiter plates were sprayed with aqueous test solutions prepared from 10'000 ppm DMSO stock solutions. After drying the leaves were infested with N2 nymphs. The samples were assessed for mortality and growth inhibition in comparison to untreated samples 5 days after infestation.

[7] = test system: Myzus persicae (Green Peach Aphid); experiment: Myzus persicae (Green Peach Aphid): Systemic Activity; settings: 144 h, test rate of 24 ppm, roots of infested pea seedlings placed into test solutions, 6 days
Procedure: Example B7: Myzus persicae (Green Peach Aphid): Systemic Activity
Roots of pea seedlings infested with an aphid population of mixed ages were placed directly into aqueous test solutions prepared from 10'000 DMSO stock solutions. The samples were assessed for mortality 6 days after placing seedlings into test solutions.

CCS(=O)(=O)c1cc(Br)cnc1N1Cc2cnc(C(F)(F)F)cc2C1=O [Compound P7, 2-(5-bromo-3-ethylsulfonyl-2-pyridyl)-6-(trifluoromethyl)-3H-pyrrolo[3,4-c]pyridin-1-one]
≥ 80%: percent effect (mortality or growth inhibition) at 200 ppm [1] | mortality at 200 ppm [2] | percent control (mortality, anti-feedant effect or growth inhibition) at 200 ppm [3] | mortality at 200 ppm [4] | percent effect (mortality or growth inhibition) at 200 ppm [5]

CCS(=O)(=O)c1cc(C2CC2)cnc1N1Cc2cnc(C(F)(F)F)cc2C1=O [Compound P14, 2-(5-cyclopropyl-3-ethylsulfonyl-2-pyridyl)-6-(trifluoromethyl)-3H-pyrrolo[3,4-c]pyriclin-1-one]
≥ 80%: percent effect (mortality or growth inhibition) at 200 ppm [1] | percent effect (mortality or growth inhibition) at 200 ppm [6] | mortality at 24 ppm [7] | percent control (mortality, anti-feedant effect or growth inhibition) at 200 ppm [3] | mortality at 200 ppm [4] | percent effect (mortality or growth inhibition) at 200 ppm [5]

CCS(=O)(=O)c1ccc(C2CC2)nc1N1Cc2cnc(C(F)(F)F)cc2C1=O [Compound P15, 2-(6-cyclopropyl-3-ethylsulfonyl-2-pyridyl)-6-(trifluoromethyl)-3H-pyrrolo[3,4-c]pyriclin-1-one]
≥ 80%: percent effect (mortality or growth inhibition) at 200 ppm [1] | percent effect (mortality or growth inhibition) at 200 ppm [6] | mortality at 24 ppm [7] | percent control (mortality, anti-feedant effect or growth inhibition) at 200 ppm [3] | mortality at 200 ppm [4] | percent effect (mortality or growth inhibition) at 200 ppm [5]

CCS(=O)(=O)c1ccc(-c2ncccn2)nc1N1Cc2cnc(C(F)(F)F)cc2C1=O [Compound P16, 2-(3-ethylsulfonyl-6-pyrimidin-2-yl-2-pyridyl)-6-(trifluoromethyl)-3H-pyrrolo[3,4-c]pyriclin-1-one]
≥ 80%: percent effect (mortality or growth inhibition) at 200 ppm [1] | percent effect (mortality or growth inhibition) at 200 ppm [6] | mortality at 24 ppm [7] | percent control (mortality, anti-feedant effect or growth inhibition) at 200 ppm [3] | mortality at 200 ppm [4] | percent effect (mortality or growth inhibition) at 200 ppm [5]

CCS(=O)(=O)c1ccc(N2CCOC2=O)nc1N1Cc2cnc(C(F)(F)F)cc2C1=O [Compound P17, 3-[5-ethylsulfonyl-6-[1-oxo-6-(trifluoromethyl)-3H-pyrrolo[3,4-c]pyridin-2-yl]-2-pyridyl]oxazolidin-2-one]
≥ 80%: percent effect (mortality or growth inhibition) at 200 ppm [1] | mortality at 24 ppm [7] | percent control (mortality, anti-feedant effect or growth inhibition) at 200 ppm [3] | mortality at 200 ppm [4] | percent effect (mortality or growth inhibition) at 200 ppm [5]

CCC(=O)N(C)c1ccc(S(=O)(=O)CC)c(N2Cc3cnc(C(F)(F)F)cc3C2=O)n1 [Compound P19, N-[5-ethylsulfonyl-6-[1-oxo-6-(trifluoromethyl)-3H-pyrrolo[3,4-c]pyridin-2-yl]-2-pyridyl]-N-methyl-propanamide]
≥ 80%: percent effect (mortality or growth inhibition) at 200 ppm [1] | percent effect (mortality or growth inhibition) at 200 ppm [6] | mortality at 24 ppm [7] | percent control (mortality, anti-feedant effect or growth inhibition) at 200 ppm [3] | mortality at 200 ppm [4] | percent effect (mortality or growth inhibition) at 200 ppm [5]

CCS(=O)(=O)c1ccc(N(C)C(C)=O)nc1N1Cc2cnc(C(F)(F)F)cc2C1=O [Compound P20, N-[5-ethylsulfonyl-6-[1-oxo-6-(trifluoromethyl)-3H-pyrrolo[3,4-c]pyridin-2-yl]-2-pyridyl]-N-methyl-acetamide]
≥ 80%: percent effect (mortality or growth inhibition) at 200 ppm [1] | percent effect (mortality or growth inhibition) at 200 ppm [6] | mortality at 24 ppm [7] | percent control (mortality, anti-feedant effect or growth inhibition) at 200 ppm [3] | mortality at 200 ppm [4] | percent effect (mortality or growth inhibition) at 200 ppm [5]

CCS(=O)(=O)c1cccnc1N1Cc2ccc(C(F)(F)F)cc2C1=O [Compound P21, 2-(3-ethylsulfonyl-2-pyridyl)-6-(trifluoromethyl)isoindolin-1-one]
≥ 80%: percent effect (mortality or growth inhibition) at 200 ppm [1] | mortality at 200 ppm [2] | percent effect (mortality or growth inhibition) at 200 ppm [6] | mortality at 24 ppm [7] | percent control (mortality, anti-feedant effect or growth inhibition) at 200 ppm [3] | mortality at 200 ppm [4] | percent effect (mortality or growth inhibition) at 200 ppm [5]

CCS(=O)(=O)c1cccnc1N1Cc2ncc(C(F)(F)F)cc2C1=O [Compound P22, 6-(3-ethylsulfonyl-2-pyridyl)-3-(trifluoromethyl)-7H-pyrrolo[3,4-b]pyridin-5-one]
≥ 80%: percent effect (mortality or growth inhibition) at 200 ppm [1] | mortality at 24 ppm [7] | percent control (mortality, anti-feedant effect or growth inhibition) at 200 ppm [3] | mortality at 200 ppm [4] | percent effect (mortality or growth inhibition) at 200 ppm [5]

CCS(=O)(=O)c1cccnc1N1Cc2ccc(OC(F)(F)F)cc2C1=O [Compound P24, 2-(3-ethylsulfonyl-2-pyridyl)-6-(trifluoromethoxy)isoindolin-1-one]
≥ 80%: percent effect (mortality or growth inhibition) at 200 ppm [1] | percent control (mortality, anti-feedant effect or growth inhibition) at 200 ppm [3] | mortality at 200 ppm [4] | percent effect (mortality or growth inhibition) at 200 ppm [5]

CCS(=O)(=O)c1cc(C2(C#N)CC2)cnc1N1Cc2ccc(OC(F)(F)F)cc2C1=O [Compound P25, 1-[5-ethylsulfonyl-6-[1-oxo-6-(trifluoromethoxy)isoindolin-2-yl]-3-pyridyl]cyclopropanecarbonitrile]
≥ 80%: percent effect (mortality or growth inhibition) at 200 ppm [1] | mortality at 200 ppm [2] | percent effect (mortality or growth inhibition) at 200 ppm [6] | percent control (mortality, anti-feedant effect or growth inhibition) at 200 ppm [3] | mortality at 200 ppm [4] | percent effect (mortality or growth inhibition) at 200 ppm [5]

CCS(=O)(=O)c1cc(C2(C#N)CC2)cnc1N1Cc2ccc(C(F)(F)F)cc2C1=O [Compound P26]
≥ 80%: percent effect (mortality or growth inhibition) at 200 ppm [1] | mortality at 200 ppm [2] | percent effect (mortality or growth inhibition) at 200 ppm [6] | percent control (mortality, anti-feedant effect or growth inhibition) at 200 ppm [3] | mortality at 200 ppm [4] | percent effect (mortality or growth inhibition) at 200 ppm [5]

CCS(=O)(=O)c1cc(C(C)(C)C#N)cnc1N1Cc2ncc(C(F)(F)F)cc2C1=O [Compound P27, 2-[5-ethylsulfonyl-6-[5-oxo-3-(trifluoromethyl)-7H-pyrrolo[3,4-b]pyridin-6-yl]-3-pyridyl]-2-methyl-propanenitrile]
≥ 80%: percent effect (mortality or growth inhibition) at 200 ppm [1] | mortality at 200 ppm [2] | mortality at 24 ppm [7] | percent control (mortality, anti-feedant effect or growth inhibition) at 200 ppm [3] | percent effect (mortality or growth inhibition) at 200 ppm [5]
